System: FaDu tumor
Experiment: In vivo radiosensitization therapy of FaDu tumor-bearing NuNu mice
Conditions: bi-flank FaDu tumor-bearing NuNu mice, single chemical dose (20% of MTD) followed by single 10 Gy external beam radiotherapy
From the text: In very brief, the evaluation of radiosensitization potential of IAZA using a single chemical dose (20% of the maximum tolerated dose; MTD) and a single radiation dose (10 Gy) was done in ‘bi-flank FaDu tumor-bearing NuNu mice was done. Benefits of IAZA-bestowed radiosensitization therapy effects were compared with the conventional radiotherapy alone (a single 10 Gy dose).
FIGS. 28 and 29 depict IN VIVO RADIOSENSITIZATION THERAPY OF FaDu TUMOR BEARING NU-NU MICE USING A SINGLE CHEMICAL DOSE OF IAZA (20% of MTD) AND 10 Gy RADIATION DOSE (Green stain indicates the hypoxic region in tumor)

[1] = compared with radiotherapy alone

O=[N+]([O-])c1nccn1[C@@H]1O[C@H](C[125I])[C@@H](O)[C@@H]1O [IAZA]
morbidity: no morbidity
hypoxic content of the tumor [1]: Reduction in hypoxic content of the tumor
tumor size [1]: tumor size reduction

Reference: US20220249710A1, “BIOREDUCTIVELY-ACTIVATED COMPOUNDS, THEIR PRODRUGS, RADIOPHARMACEUTICALS, THE COMPOSITIONS, AND THEIR APPLICATIONS IN MULTIMODAL THERANOSTIC MANAGEMENT OF HYPOXIA DISEASES INCLUDING CANCER” (The Governors of the University of Alberta, priority 2017, published 2022)
